# Ends that are not written are not given here.
# How the values were obtained:
# [1] = test system: B16-F-10 mouse melanoma; test: B16-F10 mouse melanoma lung metastasis model; assay type: in vivo, C57/BL6 mice; details: for number of tumor nodules, difference versus no treatment saline (one-way ANOVA, p<0.05) / reduction of lung metastasis (tumor nodules) relative to no treatment saline: Table 1B study, i.v., days 1, 2, 4, 6, 8, 12
# [2] = biological target: T1, human PD-1 (Homo sapiens, UniProt Q15116); test: Binding of PD-L1-Fc to PD-1 in a cell-free plate assay; details: plates coated with peptide; 1 μg/mL PD-1
# Procedure: The plates were washed and blocked with 1% BSA for 1 hour at room temperature. The plates were then incubated with 100 μL of 1 μg/mL PD-1 at room temperature for 1 hour. The plates were again washed and incubated with PD-L1 at room temperature for 1 hour. After another round of washes, the plates were incubated with anti-human IgG-HRP. After incubation for 1 hour and washes, the HRP was detected by incubating with TMB substrate, and the OD were read on a microplate reader.
# Target sequence in this assay (Q15116 25-167 limits assumed): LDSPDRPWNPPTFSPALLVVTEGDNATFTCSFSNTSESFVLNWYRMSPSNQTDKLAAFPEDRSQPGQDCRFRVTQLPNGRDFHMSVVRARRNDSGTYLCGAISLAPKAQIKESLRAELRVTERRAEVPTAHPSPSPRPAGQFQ
# Target sequence in this assay (Q9NZQ7 19-238 partner limits assumed): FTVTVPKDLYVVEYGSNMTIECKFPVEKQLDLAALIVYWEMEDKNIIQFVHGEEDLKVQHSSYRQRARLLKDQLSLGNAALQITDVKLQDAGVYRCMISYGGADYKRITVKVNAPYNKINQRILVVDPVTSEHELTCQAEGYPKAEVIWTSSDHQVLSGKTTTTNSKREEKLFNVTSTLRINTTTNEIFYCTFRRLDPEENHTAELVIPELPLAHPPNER
# [3] = biological target: T1, human PD-1; test: BIACORE binding of peptide LD01 to human PD-1; details: immobilized peptide; single analyte concentration 290 nM; 25° C.
# Procedure: (§1) BIACORE® assays were carried out using a BIACORE® T-200 at 25° C. The assay and regeneration buffers contained 10 mM HEPES (pH 7.4), 150 mM NaCl, 3 mM EDTA, and 0.05% P20. The immobilization buffer was 10 mM sodium acetate, pH 5.0. The flow rate used for immobilizing the ligand was 5 μl/min. The flow rate for kinetics analysis was 30 μl/min.
# (§2) Scouting. […] The un-occupied sites were blocked with 1M ethanol amine. Scouting was performed at a single analyte concentration of 290 nM to confirm yes/no binding. Flow cell 1 was kept blank and used for reference subtraction. Binding of analyte to the ligand was monitored in real time.
# (§3) Full Kinetics. Based on the scouting results, full kinetics was performed at analyte concentration of 100 nM, followed by serial dilution to 50, 25, 12.5, 6.25, 3.125, 1.562 and 0 nM concentration or as indicated. KD was determined from the observed kon (on rate) and koff (off rate) or by steady state equilibrium kinetics for the interactions with fast off rate.
# (§4) Chi square (χ^2) analysis was carried out between the actual Sensorgram and the sensorgram generated from the BIAnalysis software to determine the accuracy of the analysis. χ^2 value within 1-2 is considered significant (accurate) and below 1 is highly significant (highly accurate).
# Target sequence in this assay (Q15116 25-288): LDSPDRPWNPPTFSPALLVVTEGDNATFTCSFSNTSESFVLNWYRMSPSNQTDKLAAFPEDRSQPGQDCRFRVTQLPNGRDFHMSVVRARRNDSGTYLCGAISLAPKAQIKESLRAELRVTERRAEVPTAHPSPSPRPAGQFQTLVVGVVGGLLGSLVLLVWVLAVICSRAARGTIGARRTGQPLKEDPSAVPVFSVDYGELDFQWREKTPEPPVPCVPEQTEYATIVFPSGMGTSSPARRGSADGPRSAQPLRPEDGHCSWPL
# [4] = biological target: T2, mouse PD-1 (Mus musculus, UniProt Q02242); test: BIACORE binding of peptide LD01 to mouse PD-1; details: immobilized peptide; 25° C.
# T2 sequence (Q02242 25-288): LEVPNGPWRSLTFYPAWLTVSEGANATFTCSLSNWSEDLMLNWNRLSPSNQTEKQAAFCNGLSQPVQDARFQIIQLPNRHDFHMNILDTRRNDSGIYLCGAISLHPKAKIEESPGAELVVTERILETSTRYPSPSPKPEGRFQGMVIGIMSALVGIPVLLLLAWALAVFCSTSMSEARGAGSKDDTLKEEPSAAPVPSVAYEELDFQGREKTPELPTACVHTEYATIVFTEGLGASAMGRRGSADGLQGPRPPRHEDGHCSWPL
# Procedure: as §1, §2, §3, §4
# [5] = test system: mouse splenocytes; test: Anti-CD3-stimulated mouse splenocyte proliferation (CFSE); assay type: cell-based; details: 1, 5, 25 μM peptide; 1 μg/mL anti-CD3; presence and absence of exogenously added PD-L1-Fc; 3 days
# Procedure: PD-L1-Fc fusion protein is hypothesized to reduce anti-CD3 induced splenocyte proliferation.
# Carboxyfluorescein diacetate succinimidyl ester (CFSE)-labeled mouse splenocytes (400,000 cells, 5 μM CFSE) were stimulated using 1 μg/mL anti-CD3 antibody and varying levels of PD-L1-Fc or an irrelevant control Fc. […] The CFSE dilution profiles were analyzed by flow cytometry after 3 days of treatment.
# [6] = test system: CSP-specific, IFNγ-secreting CD8+ T cells; test: Immunogenicity of AdPyCSP malaria vaccine (ELISPOT); assay type: in vivo, Balb/c mice; details: for increase in number of CSP-specific, IFNγ-secreting CD8 T cells relative to AdPyCSP alone: 200 μg i.p. days 0, 1, 3, 5, 7, day 12
# Procedure: Balb/c mice were immunized intramuscularly with 10^10 virus particles of a recombinant replication defective adenovirus expressing the Plasmodium yoelli circumsporozoite protein (AdPyCSP).
# The negative control peptide used in this study was the ovalbumin (OVA) peptide ([…], SEQ ID NO:34). At day 12 post immunization, mice were euthanized, individual spleens removed, and the number of splenic CSP-specific, IFNγ-secreting CD8^+ T cells were determined by ELISPOT assay. For the ELISPOT assay splenocytes were stimulated with the peptide […] (SEQ ID NO:35), an H-2Kd-restricted CD8^+ T cell epitope of PyCSP.
# Peptides LD01, LD10da, and LD16da were tested as described above, this time using peptide LD12 (cohort 2) as the negative control. Test sample, route of treatment and treatment days are detailed in Table 2B.
# At day 12 post immunization, mice were euthanized, individual spleens removed, and the number of splenic CSP-specific, IFNγ-secreting CD8^+ T cells were determined by ELISPOT assay. For the ELISPOT assay splenocytes were stimulated with the peptide […] (SEQ ID NO:35), an H-2Kd-restricted CD8^+ T cell epitope of PyCSP.
# [7] = biological target: T3, human PD-1 expressed on the surface of Jurkat cells (Homo sapiens, UniProt Q15116); test: Binding of PD-L1-Fc fusion protein to human PD-1 on Jurkat cells (flow cytometry); assay type: cell-based; details: varying peptide concentrations, 1 hour pre-incubation; increasing dose-response trend
# T3 construct: host or cells: Jurkat
# Procedure: A human T cell line (Jurkat) stably expressing human PD-1 on its surface was purchased from Promega. This cell line was cultured using sterile techniques and maintained in log-phase growth. PD-1 protein expression levels were measured using an anti-human PD-1 antibody labeled with allophycocyanin (APC) for quality assessment.
# For the experiment, 200 μL of 2.5*10^5 cells were plated in staining buffer into a microtiter plate. […] After another wash step, the cells were incubated with anti-human Fc labeled with AF647 for 30 minutes. After several washes, the mean fluorescence intensity due to PD-L1-Fc binding to PD-1 was measured by flow cytometry.
# [8] = test system: CD1 mice with intra-abdominal peritonitis induced by cecal ligation and puncture (CLP); test: Mouse sepsis model (CLP), survival; assay type: in vivo; details: 200 μg intraperitoneally at 6, 24, and 48 hours after CLP surgery
# Source text: CD1 mice were anesthetized, a midline abdominal incision made, the cecum was ligated and punctured, and then the incision closed.
# [9] = test system: human PBMCs; assay type: cell-based; details: 72 hours
# [10] = test system: IFNγ-secreting T cells; test: Mouse sepsis model (CLP), splenic IFNγ-secreting T cells by ELISPOT; assay type: in vivo, mice; details: treated at 6, 24, 48, 72 and 96 hours after CLP, anti-CD3 and anti-CD28 stimulation
# Procedure: Twenty-four hours later, mice were euthanized, individual spleens were removed, and the number of splenic IFNγ-secreting T cells were determined by ELISPOT assay. For the ELISPOT assay splenocytes were stimulated via anti-CD3 and anti-CD28. Shown in FIG. 14 is the number of IFNγ-secreting T cells per 2×10^5 splenocytes.
# T3 sequence (Q15116 25-288): as the sequence (Q15116 25-288) above
compound,measurement,setting,value
CC[C@H](C)[C@H](NC(=O)[C@H](CCC(N)=O)NC(=O)CNC(=O)[C@@H](NC(=O)[C@H](CO)NC(=O)[C@H](N)[C@H](C)O)[C@@H](C)O)C(=O)N[C@@H](CO)C(=O)N[C@H](C(=O)N[C@@H](CC(C)C)C(=O)N[C@@H](CCCNC(=N)N)C(=O)N[C@H](C(=O)N[C@@H](CC(N)=O)C(=O)N[C@H](C(=O)N[C@H](C(=O)N[C@@H](C)C(=O)N1CCC[C@H]1C(=O)N[C@@H](CC(C)C)C(=O)N[C@@H](CO)C(=O)N[C@@H](CCC(N)=O)C(N)=O)[C@@H](C)O)[C@@H](C)CC)C(C)C)[C@@H](C)O [LD01 TQ19 da/LD16 da],"number of tumor nodules, difference versus no treatment saline (one-way ANOVA, p<0.05)",[1],Significant differences
same,reduction of lung metastasis (tumor nodules) relative to no treatment saline,[1],~30%
CC[C@H](C)[C@H](NC(=O)[C@H](CCC(N)=O)NC(=O)CNC(=O)[C@@H](NC(=O)[C@H](CO)NC(=O)[C@@H](NC(=O)[C@H](CCCNC(=N)N)NC(=O)[C@H](CCCNC(=N)N)NC(=O)[C@@H](N)CS)[C@@H](C)O)[C@@H](C)O)C(=O)N[C@@H](CO)C(=O)N[C@H](C(=O)N[C@@H](CC(C)C)C(=O)N[C@@H](CCCNC(=N)N)C(=O)N[C@H](C(=O)N[C@@H](CC(N)=O)C(=O)N[C@H](C(=O)N[C@H](C(=O)N[C@@H](C)C(=O)N1CCC[C@H]1C(=O)N[C@@H](CC(C)C)C(=O)N[C@@H](CO)C(=O)N[C@@H](CCC(N)=O)C(N)=O)[C@@H](C)O)[C@@H](C)CC)C(C)C)[C@@H](C)O [LD01],effect on binding of human PD-L1-Fc fusion protein to human PD-1 in a cell-free assay,[2],enhances binding
same,"binding to human PD-1 (BIACORE, yes/no)",[3],binds
same,"binding to mouse PD-1 (BIACORE, single concentration and kinetics)",[4],binds
same,effect on proliferation of anti-CD3 stimulated mouse splenocytes,[5],enhances proliferation
same,immunogenicity compared with anti-PD-1 or -PD-L1 antibody (Cohort 4 and 5),"[6]; Table 2A study, 200 μg i.p.",slightly above
same,"increase in number of CSP-specific, IFNγ-secreting CD8 T cells relative to AdPyCSP alone",[6]; Table 2A study,~2 fold
same,"increase in number of CSP-specific, IFNγ-secreting CD8 T cells relative to AdPyCSP alone",[6]; Table 2B study,~1.5 fold
same,reduction of lung metastasis (tumor nodules) relative to no treatment,"[1]; Table 1A study, Cohorts 3 and 4 (20 μg and 200 μg i.v., days 1, 2, 4, 6, 8, 12), day 14",~50%
same,"number of tumor nodules, difference versus no treatment saline (one-way ANOVA, p<0.05)",[1],Significant differences
same,reduction of lung metastasis (tumor nodules) relative to no treatment saline,[1],~30%
same,effect on binding of human PD-L1-Fc fusion protein to human PD-1-expressing Jurkat cells,[7],enhances binding
same,survival rate,[8],70%
same,increase in IFN-γ secretion relative to SEB alone,[9],4 fold
same,number of splenic IFNγ-secreting T cells relative to the control peptide,[10],increase
CC[C@H](C)[C@H](NC(=O)[C@H](CCC(N)=O)NC(=O)CNC(=O)[C@@H](NC(=O)[C@H](N)CO)[C@@H](C)O)C(=O)N[C@@H](CO)C(=O)N[C@H](C(=O)N[C@@H](CC(C)C)C(=O)N[C@@H](CCCNC(=N)N)C(=O)N[C@H](C(=O)N[C@@H](CC(N)=O)C(=O)N[C@H](C(=O)N[C@H](C(=O)N[C@@H](C)C(=O)N1CCC[C@H]1C(=O)N[C@@H](CC(C)C)C(=O)N[C@@H](CO)C(=O)N[C@@H](CCC(N)=O)C(N)=O)[C@@H](C)O)[C@@H](C)CC)C(C)C)[C@@H](C)O [LD10da],immunogenicity compared with α-PD-1 mAb (Cohort 6),"[6]; Table 2B study, 200 μg i.p.",slightly above
RRTSPGQISTLRVNITAPLSQ [LD02],survival rate,[8],30%

# From patent publication US12370258B2, “PD-1 and CTLA-4 dual inhibitor peptides” (priority 2017, dated 2025)
